Reference: patent publication US9216186B2, “Combination of a pyrroloquinoline compound and an aminoglycodise antimicrobial agent” (HELPERBY THERAPEUTICS LIMITED, priority 2010, dated 2015)
≈ marks a conversion by molar mass, not a printed value. Where “and” joins values, the source holds several entries; their conditions need not be identical. Equal values may be shown once. Where a name gives a salt, the structure may show the parent alone. Read-outs that look alike come from different tables or passages of the source.

Experiments:
Assay type in all cases: cell-based
[1] = tested on: log phase Pseudomonas aeruginosa (clinical isolate); test: Chequerboard analysis of log phase bacteria, optical density at 405 nm / MIC; conditions: for MIC: single agent, range up to 64 μg/ml HT61, 16 μg/ml tobramycin
Method: (§1) Pseudomonas aeruginosa (clinical isolate).
P. aeruginosa was grown in 10 ml of NB overnight at 37° C. with continuous shaking at 120 rpm. The overnight cultures were diluted 1000× with iso-sensitest broth to obtain a cell suspension containing the bacteria at 10^6 CFU/ml. The cultures were incubated at 37° C. with shaking for 1-2 hours served as log-phase cultures. Viability of the bacteria was estimated by colony forming unit (CFU) counts.
The two drugs were serially diluted twofold to 0 and combined in a pattern of an array.
The optical density of the bacterial cells was read at 405 nm using a plate reader (Bio TEK). The MIC concentration was determined as the lowest concentration of drug which inhibits the bacterial growth. The MIC values of the drugs were determined by comparison of the optical density reading between prior and post drug treatment.

[2] = tested on: stationary phase Pseudomonas aeruginosa (clinical isolate); test: Kill curve by CFU counts against stationary phase bacteria
Method: as §1
A single colony of Ps. aeruginosa was inoculated in 10 ml of Nutrient Broth No. 2 (NB) (Oxoid) which was incubated overnight at 37° C. with continuous shaking at 120 rpm. 200 μl of the overnight culture was added into a 500 ml screw-cap which contained 100 ml of NB. The 100 ml culture was incubated at 37° C. with continuous shaking for 5 to 6 days. The cultures were diluted with phosphate buffered saline to 10^7 CFU/ml.
The activities of the combination and each of the individual drugs were measured by CFU counts at 0, 2, 4, 6 and 8 hours. CFU counts were performed as follows: from serial 10-fold dilutions of the experimental cultures, 100 μl samples were added to triplicate plates of nutrient agar plates (Oxoid). Colony forming units (CFU) were counted after incubation of the plates at 37° C. for 24 hours.

[3] = tested on: clinically latent microorganisms; test: Screening of compounds for ability to kill clinically latent microorganisms (method of WO2000028074); conditions: observed by the Applicant using the method of WO2000028074
Text: International Patent Application, Publication Number WO2000028074 describes a method of screening compounds to determine their ability to kill clinically latent microorganisms. […] This observation has necessitated the development of novel antimicrobials which may be used to kill clinically latent microorganisms.
By way of example, WO2000028074 describes a suitable method of screening compounds to determine their ability to kill clinically latent microorganisms. A typical method may include the following steps: • (1) growing a bacterial culture to stationary phase; • (2) treating the stationary phase culture with one or more antimicrobial agents at a concentration and or time sufficient to kill growing bacteria, thereby selecting a phenotypically resistant sub-population; • (3) incubating a sample of the phenotypically resistant subpopulation with one or more test compounds or agents; and • (4) assessing any antimicrobial effects against the phenotypically resistant subpopulation.

[4] = tested on: Staphylococcus aureus (Oxford); test: Minimum inhibitory concentration (MIC), broth dilution in Iso-Sensitest broth; conditions: S. aureus (Oxford), overnight incubation at 37° C.
Method: Staphylococcus aureus (Oxford); Gram positive; Reference strain.
Iso-Sensitest Broth (Oxoid) was used for evaluation of Minimum inhibitory concentrations (MICs), susceptibility tests for antimicrobials, and efficacy of antimicrobial combinations.
The stock solution of each drug was diluted to required concentrations. 10 μl of drug from each dilution was taken and mixed with 290 μl of culture with 10^6 of bacterial cells on a 96-well plate to make the final required concentrations (μg/ml).
The plates were read at 405 nm using a 96-well plate reader Elx 800 equipped with a 405-nm filter (Bio-Tek) before and after incubation. The MIC values of the drugs were determined by comparison of the optical density reading between prior and post drug treatment.

[5] = tested on: Staphylococcus aureus (Oxford); test: Minimum bactericidal concentration (MBC), subculture on drug-free TSA plates; conditions: S. aureus (Oxford)
[6] = Staphylococcus aureus, read-out: MIC

Cc1nc2ccc(Oc3ccccc3)cc2c2c1CCN2CCc1ccccc1 [HT61, 4-methyl-8-phenoxy-1-(2-phenylethyl)-2,3-dihydro-1H-pyrrolo[3,2-c]quinoline mesylate]
optical density at 405 nm ([1]; HT61 1 μg/ml alone (tobramycin 0), mesylate): 3.16 and 3.08 | optical density at 405 nm ([1]; HT61 2 μg/ml alone (tobramycin 0), mesylate): 3.12 and 3.11 | optical density at 405 nm ([1]; HT61 4 μg/ml alone (tobramycin 0), mesylate): 3.11 and 3.10 | optical density at 405 nm ([1]; HT61 8 μg/ml alone (tobramycin 0), mesylate): 3.15 and 3.10 | optical density at 405 nm ([1]; HT61 16 μg/ml alone (tobramycin 0), mesylate): 3.11 and 3.07 | optical density at 405 nm ([1]; HT61 32 μg/ml alone (tobramycin 0), mesylate): 3.09 and 3.04 | optical density at 405 nm ([1]; HT61 64 μg/ml alone (tobramycin 0), mesylate): 3.01 and 3.09 | MIC ([1]; log phase P. aeruginosa): no MIC | MIC of HT61 in combination with tobramycin ([1]; with tobramycin at 0.5 μg/ml, log phase P. aeruginosa): 16 mg/L | activity alone against stationary phase P. aeruginosa ([2]; alone at 32, 16 and 8 μg/ml): slight or no activities

CC(=O)NC[C@H]1CN(c2ccc(N3CCOCC3)c(F)c2)C(=O)O1 [linezolid]
activity against clinically latent microorganisms [3]: little or no activity

C/C(=C\C(=O)OCCCCCCCCC(=O)O)C[C@@H]1OC[C@H](C[C@@H]2O[C@H]2[C@@H](C)[C@H](C)O)[C@@H](O)[C@H]1O [mupirocin]
activity against clinically latent microorganisms [3]: little or no activity

NC[C@H]1O[C@H](O[C@H]2[C@H](O)[C@@H](O[C@H]3O[C@H](CO)[C@@H](O)[C@H](N)[C@H]3O)[C@H](N)C[C@@H]2N)[C@H](N)C[C@@H]1O [Tobramycin]
MIC ([1]; Pseudomonas aeruginosa, log phase P. aeruginosa, read-out: MIC): 1 mg/L | optical density at 405 nm ([1]; tobramycin 0.01563 μg/ml alone (HT61 0)): 3.25 and 3.14 | optical density at 405 nm ([1]; tobramycin 0.03125 μg/ml alone (HT61 0)): 3.24 and 3.18 | optical density at 405 nm ([1]; tobramycin 0.0625 μg/ml alone (HT61 0)): 3.16 and 3.09 | optical density at 405 nm ([1]; tobramycin 0.125 μg/ml alone (HT61 0)): 3.15 and 3.08 | optical density at 405 nm ([1]; tobramycin 0.25 μg/ml alone (HT61 0)): 3.04 and 2.97 | optical density at 405 nm ([1]; tobramycin 0.5 μg/ml alone (HT61 0)): 2.19 and 2.18 | optical density at 405 nm ([1]; tobramycin 1 μg/ml alone (HT61 0)): 0.46 | optical density at 405 nm ([1]; tobramycin 2 μg/ml alone (HT61 0)): 0.44 and 0.45 | optical density at 405 nm ([1]; tobramycin 4 μg/ml alone (HT61 0)): 0.47 and 0.50 | optical density at 405 nm ([1]; tobramycin 8 μg/ml alone (HT61 0)): 0.44 | activity alone against stationary phase P. aeruginosa ([2]; alone at 2 and 1 μg/ml): very low or no activities

Gentamicin
MIC [4]: 1 mg/L | MBC [5]: 8 mg/L

CC[C@H]1OC(=O)[C@H](C)[C@@H](O[C@H]2C[C@@](C)(OC)[C@@H](O)[C@H](C)O2)[C@H](C)[C@@H](O[C@@H]2O[C@H](C)C[C@H](N(C)C)[C@H]2O)[C@](C)(O)C[C@@H](C)CN(C)[C@H](C)[C@@H](O)[C@]1(C)O [azithromycin]
activity against clinically latent microorganisms [3]: little or no activity

NC[C@H]1O[C@H](O[C@H]2[C@H](O)[C@@H](O[C@H]3O[C@H](CO)[C@@H](O)[C@H](N)[C@H]3O)[C@H](N)C[C@@H]2N)[C@H](O)[C@@H](O)[C@@H]1O [Kanamycin]
MIC [4, 6]: 8 mg/L

co-amoxiclav
activity against clinically latent microorganisms [3]: little or no activity

Cc1nc2ccc(Oc3ccccc3)cc2c2c1CCN2CCc1ccccc1 [4-methyl-8-phenoxy-1-(2-phenylethyl)-2,3-dihydro-1H-pyrrolo[3,2-c]quinoline]
MIC [4, 6]: 8 mg/L | MBC ([5]; Staphylococcus aureus, read-out: MBC): 16 mg/L (≈ 42.1 µM)
